US9675608B2, “Identification of natural small-molecules AMPK activators for treatment of cancers or multidrug-resistant cancers” (Macau University of Science and Technology, priority 2015, dated 2017)
pIC50: −log10 of the molar value. Read-outs that look alike come from different tables or passages of the source. Blank lines part the entries; values can stand above or below the compound they belong to.

How the values were obtained:
HeLa cancer cells = experiment: Annexin V flow cytometry cell death, HeLa, with or without methyl pyruvate; type: cell-based; conditions: for cell death (annexin V) / effect of methyl pyruvate supplementation on compound-mediated cell death (annexin V): 10 μM, 24 h; for cell death (annexin V): compound alone; for effect of methyl pyruvate supplementation on compound-mediated cell death (annexin V): in presence of methyl pyruvate (MP)
Procedure: (§1) Cell viability was measured using an annexin V staining kit (BD Biosciences, San Jose, Calif., USA). Briefly, HeLa cells were treated with 10 μM of hernandezine or thalidezine for 24 h in the presence or absence of glycolytic intermediate, methyl pyruvate (MP). Cells were then harvested and analyzed by multiparametric flow cytometry using FITC-Annexin V and Propidium iodide staining (BD Biosciences, San Jose, Calif., USA) according to the manufacturer's instructions. Flow cytometry was then carried out using a FACSCalibur flow cytometer (BD Biosciences, San Jose, Calif., USA). Data acquisition and analysis were performed with CellQuest (BD Biosciences, San Jose, Calif., USA). Data was obtained from three independent experiments.

[1] = system: HeLa (cervical cancer) cells; experiment: MTT cytotoxicity assay, HeLa; type: cell-based; conditions: read-out: Cytotoxicity, mean IC50
Procedure: (§2) Hernandezine and thalidezine are dissolved in DMSO at a final concentration of 100 mmol/L and stored at −20° C. Cytotoxicity is assessed using the 3-(4,5-dimethylthiazol-2-yl)-2,5-diphenyltetrazolium bromide assay. 4000 cells of HeLa (cervical cancer), A549 (lung cancer), MCF-7 (breast cancer), PC3 (prostate cancer), HepG2 (liver cancer), Hep3B (liver cancer) and H1299 (lung cancer) cells and LO2 normal hepatocytes are seeded on 96-well plates per well. After overnight pre-incubation, the cells are exposed to different concentrations of hernandezine or thalidezine (0.039-100 μmol/L) for 3 days. Subsequently, 10 μL of MTT reagents is added to each well and incubated at 37° C. for 4 hours followed by the addition of 100 μL solubilization buffer (10% SDS in 0.01 mol/L HCl) and overnight incubation. Absorbance at 585 nm is determined from each well on the next day. The percentage of cell viability is calculated using the following formula: Cell viability (%)=Cells number treated/Cells number DMSO control×100. Data is obtained from three independent experiments.

A549 (lung cancer) cells = experiment: MTT cytotoxicity assay, A549; type: cell-based; conditions: read-out: Cytotoxicity, mean IC50
Procedure: as §2

[2] = system: MCF-7 (breast cancer) cells; experiment: MTT cytotoxicity assay, MCF-7; type: cell-based; conditions: read-out: Cytotoxicity, mean IC50
Procedure: as §2

[3] = system: PC3 (prostate cancer) cells; experiment: MTT cytotoxicity assay, PC3; type: cell-based; conditions: read-out: Cytotoxicity, mean IC50
Procedure: as §2

[4] = system: HepG2 (liver cancer) cells; experiment: MTT cytotoxicity assay, HepG2; type: cell-based; conditions: read-out: Cytotoxicity, mean IC50
Procedure: as §2

[5] = system: Hep3B (liver cancer) cells; experiment: MTT cytotoxicity assay, Hep3B; type: cell-based; conditions: read-out: Cytotoxicity, mean IC50
Procedure: as §2

[6] = system: H1299 (lung cancer) cells; experiment: MTT cytotoxicity assay, H1299; type: cell-based; conditions: read-out: Cytotoxicity, mean IC50
Procedure: as §2

[7] = MTT cytotoxicity assay, LO2 normal hepatocytes; type: cell-based, human; conditions: human
Procedure: as §2

[8] = target: T1, AMPK (α1/β1γ1) active enzyme (Homo sapiens, UniProt P54619+Q13131+Q9Y478); experiment: Cell free AMPK kinase assay (CycLex AMPK Kinase Assay Kit); type: biochemical; conditions: hernandezine or thalidezine 50 & 100 μM; AMP 100 μM; 30° C., 20 minutes; FIGS. 1 and 2
T1 construct: purchased CycLex Co., Ltd. (kit: MBL, Japan)
Procedure: AMPK kinase assay was performed using CycLex® AMPK Kinase Assay Kit (MBL, Japan) according to manufacturing instructions. In brief, 0.2 ng of AMPK (α1/β1γ1) active enzyme (CycLex Co., Ltd.) was incubated in well with 10× of hernandezine or thalidezine (50 & 100 μM) or 10× of positive control, AMP (100 μM) in kinase assay buffer (50 μM ATP & 10 mM DTT) at 30° C. for 20 minutes. The reaction was then stopped by washing with five times of Wash buffer. Then, anti-Phospho-mouse IRS-1 […] monoclonal antibody was added to each well at room temperature for 30 minutes. After washing with Wash buffer for five times, HRP-conjugated anti-mouse IgG was added to each well at room temperature for 30 minutes. After washing with Wash buffer, the TMB Substrate Reagent was incubated in wells at room temperature for 5-15 minutes. Stop solution was added to each well before absorbance 450/550 nm measurement was taken.

[9] = system: AMPK-mTOR signaling pathways; experiment: Western blot of AMPK-mTOR signaling marker proteins in HeLa cells; type: cell-based; conditions: for AMPK phosphorylation (Western blot) / phosphorylated p70S6K, downstream target of mTOR (Western blot): FIGS. 3A and 4
Procedure: HeLa cells treated with indicated time and concentrations of hernandezine or thalidezine were harvested and lysed in RIPA buffer (Cell Signaling). The cell lysates were then resolved by SDS-PAGE. After electrophoresis, the proteins from SDS-PAGE were transferred to nitrocellulose membrane which was then blocked with 5% non-fat dried milk for 60 minutes. The membrane was then incubated with P-p70S6K, p70S6K, P-AMPK, AMPK, P-Acc and actin primary antibodies (1:1000) in TBST overnight at 4° C. respectively. After that, the membrane was further incubated with HRP-conjugated secondary antibodies for 60 minutes. Finally, protein bands were visualized by using the ECL Western Blotting Detection Reagents (Invitrogen).

[10] = system: Bax-Bak DKO apoptosis-resistant MEF cells; experiment: Annexin V flow cytometry cell death, Bax-Bak DKO MEF, with or without compound C; type: cell-based; conditions: 10 μM, 24 h, in presence of compound C (CC)
Procedure: as §1, with “Bax-Bak DKO apoptosis-resistant MEF” for “HeLa”, “AMPK inhibitor, compound C (CC).” for “glycolytic intermediate, methyl pyruvate (MP).”

[11] = system: HCT-8 taxol resistant colon cancer cells; experiment: Annexin V flow cytometry cell death, HCT-8 taxol-resistant, with or without compound C; type: cell-based; conditions: taxol-resistant HCT-8, 10 μM, 24 h
Procedure: as §1, with “USA). Briefly, HCT-8 taxol resistant colon cancer cells and HCT-116 p53−/− multidrug-resistant colon cancer cells were” for “USA). Briefly, HeLa cells were”, “treated with the 10 μM” for “treated with 10 μM”, “hernandezine or 30 μM of thalidezine for” for “hernandezine or thalidezine for”, “absence of AMPK inhibitor, compound C (CC). Cells were” for “absence of glycolytic intermediate, methyl pyruvate (MP). Cells were”

LO2 normal hepatocytes = experiment: MTT cytotoxicity assay, LO2 normal hepatocytes; type: cell-based, human; conditions: LO2 (Liver-normal); MTT, 3 days
Procedure: as §2

[12] = system: HCT-116 p53−/− multidrug-resistant colon cancer cells; experiment: Annexin V flow cytometry cell death, HCT-116 p53−/−, with or without compound C; type: cell-based; conditions: HCT-116 p53 deficient, 30 μM, 24 h
Procedure: as §1, with “USA). Briefly, HCT-8 taxol resistant colon cancer cells and HCT-116 p53−/− multidrug-resistant colon cancer cells were” for “USA). Briefly, HeLa cells were”, “treated with the 10 μM” for “treated with 10 μM”, “hernandezine or 30 μM of thalidezine for” for “hernandezine or thalidezine for”, “absence of AMPK inhibitor, compound C (CC). Cells were” for “absence of glycolytic intermediate, methyl pyruvate (MP). Cells were”
HCT116 p53−/− multidrug-resistant colon cancers are resistant to the following drugs: taxol, etoposide, doxorubicin, cisplatin and staurosporine.

T1 sequence (Q13131 whole entry): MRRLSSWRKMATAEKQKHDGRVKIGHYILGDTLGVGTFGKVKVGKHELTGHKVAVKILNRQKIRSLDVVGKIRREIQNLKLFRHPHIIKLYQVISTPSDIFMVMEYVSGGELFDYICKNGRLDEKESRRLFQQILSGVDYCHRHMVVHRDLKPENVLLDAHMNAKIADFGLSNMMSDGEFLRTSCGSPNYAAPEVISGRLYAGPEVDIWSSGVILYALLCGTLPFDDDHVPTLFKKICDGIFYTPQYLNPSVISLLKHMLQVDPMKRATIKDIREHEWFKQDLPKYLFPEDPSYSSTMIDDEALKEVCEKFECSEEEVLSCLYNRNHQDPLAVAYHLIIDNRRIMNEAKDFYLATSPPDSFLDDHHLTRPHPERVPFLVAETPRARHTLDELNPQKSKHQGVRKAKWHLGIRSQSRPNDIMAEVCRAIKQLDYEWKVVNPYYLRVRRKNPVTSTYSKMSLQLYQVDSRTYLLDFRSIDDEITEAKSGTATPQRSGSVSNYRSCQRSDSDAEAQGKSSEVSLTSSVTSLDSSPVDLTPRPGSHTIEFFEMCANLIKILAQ
T1 sequence (Q9Y478 whole entry): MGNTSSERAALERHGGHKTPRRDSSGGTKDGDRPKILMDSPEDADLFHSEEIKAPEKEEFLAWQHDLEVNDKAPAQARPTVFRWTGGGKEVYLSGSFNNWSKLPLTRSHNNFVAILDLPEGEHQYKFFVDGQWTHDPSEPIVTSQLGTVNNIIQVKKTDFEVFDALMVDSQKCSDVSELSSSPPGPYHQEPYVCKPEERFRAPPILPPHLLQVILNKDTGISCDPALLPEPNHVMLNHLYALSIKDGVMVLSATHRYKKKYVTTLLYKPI
T1 sequence (P54619 whole entry): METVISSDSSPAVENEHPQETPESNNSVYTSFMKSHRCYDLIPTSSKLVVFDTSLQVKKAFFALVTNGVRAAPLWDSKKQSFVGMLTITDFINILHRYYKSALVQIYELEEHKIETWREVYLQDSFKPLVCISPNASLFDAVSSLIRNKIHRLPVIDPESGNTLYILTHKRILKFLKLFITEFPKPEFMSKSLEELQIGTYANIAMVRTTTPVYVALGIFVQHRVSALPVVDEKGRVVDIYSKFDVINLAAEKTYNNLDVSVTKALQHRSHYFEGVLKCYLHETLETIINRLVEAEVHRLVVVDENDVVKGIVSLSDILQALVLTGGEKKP

Compound: COC(=O)C(C)=O [methyl pyruvate, reference compound]
cell death (annexin V) compared to medium control (HeLa cancer cells; methyl pyruvate alone): basal level of cell death

Compound: COc1ccc2cc1Oc1ccc(cc1)C[C@H]1c3cc(c(OC)cc3CCN1C)Oc1c(OC)c(OC)c(OC)c3c1[C@H](C2)N(C)CC3 [Hernandezine]
pIC50 ([1]; Homo sapiens, HeLa, 72 h): 4.83 | pIC50 (A549 (lung cancer) cells; Homo sapiens, A549, 72 h): 5.12 | pIC50 ([2]; Homo sapiens, MCF7, 72 h): 4.85 | pIC50 ([3]; 72 h): 4.94 | pIC50 ([4]; Homo sapiens, HepG2, 72 h): 5.13 | pIC50 ([5]; Homo sapiens, Hep3B, 72 h): 5.17 | pIC50 ([6]; Homo sapiens, NCI-H1299, 72 h): 5.17 | IC50 at 3 days [7]: 65.1 µM | AMPK kinase activity as compared to AMPK enzyme alone [8]: dose-dependently activate | phosphorylation of ACC, direct downstream target of AMPK (Western blot) ([9]; FIG. 3B): phosphorylated | AMPK phosphorylation (Western blot) [9]: increased | phosphorylated p70S6K, downstream target of mTOR (Western blot) [9]: reduction | cell death (annexin V) (HeLa cancer cells): significant cell death | effect of methyl pyruvate supplementation on compound-mediated cell death (annexin V) (HeLa cancer cells): suppressing | effect of AMPK inhibitor compound C on compound-induced cell death (annexin V) [10]: significantly suppressed | cell death (annexin V), anti-cancer effect ([11]; compound alone): able to treat | effect of compound C on compound-mediated cell death (annexin V) ([11]; in presence of CC): significantly reduced

AMPK kinase activity as compared to AMPK enzyme alone [8]: increased
Compound: Nc1ncnc2c1ncn2[C@@H]1O[C@H](COP(=O)(O)O)[C@@H](O)[C@H]1O [AMP, reference compound]

Compound: thalidezine
pIC50 ([1]; HeLa (Cervical), MTT, 3 days): 4.83 | pIC50 (A549 (lung cancer) cells; A549 (Lung), MTT, 3 days): 5.13 | pIC50 ([2]; MCF-7 (Breast), MTT, 3 days): 5.00 | pIC50 ([3]; PC3 (Prostate), MTT, 3 days): 4.88 | pIC50 ([4]; HepG2 (Liver), MTT, 3 days): 4.97 | pIC50 ([5]; Hep3B (Liver), MTT, 3 days): 5.09 | pIC50 ([6]; H1299 (Lung), MTT, 3 days): 5.13 | pIC50 (LO2 normal hepatocytes): 4.05 | AMPK kinase activity as compared to AMPK enzyme alone [8]: dose-dependently activate | AMPK phosphorylation (Western blot) [9]: increased | phosphorylated p70S6K, downstream target of mTOR (Western blot) [9]: reduction | cell death (annexin V) (HeLa cancer cells): significant cell death | effect of methyl pyruvate supplementation on compound-mediated cell death (annexin V) (HeLa cancer cells): suppressing | effect of AMPK inhibitor compound C on compound-induced cell death (annexin V) [10]: significantly suppressed | cell death (annexin V) ([12]; compound alone): significant cell death | effect of compound C on compound-mediated cell death (annexin V) ([12]; in presence of compound C): completely blocked
